{"source": "paper PMC3630508", "about": "(Molecular immunology, 2012)", "key": {"[1]": {"conditions": "aqueous solubility; qualitative, data not shown"}, "complement activation": {"test_system": "complement activation", "type": "in vivo", "conditions": "20 mg E23A intra-peritoneal, male Wistar rats, one hour"}}, "data": [{"smiles": "CC[C@H](C)[C@H](NC(=O)[C@H](C)NC(=O)[C@@H]1CCCN1)C(=O)N[C@@H](CS)C(=O)N[C@@H](CCC(N)=O)C(=O)N[C@@H](CCCNC(=N)N)C(=O)N[C@@H](C)C(=O)N[C@H](C(=O)N[C@@H](C)C(=O)N[C@H](C(=O)N[C@@H](CC(C)C)C(=O)NCC(=O)N[C@H](C(=O)N[C@H](C(=O)NCC(=O)N[C@@H](CO)C(=O)N[C@@H](CC(N)=O)C(=O)N[C@H](C(=O)N[C@@H](CO)C(=O)NCC(=O)N[C@H](C(=O)N[C@H](C(=O)N[C@@H](CCC(=O)O)C(=O)N[C@H](C(=O)N[C@@H](C)C(=O)N[C@@H](C)C(=O)N[C@@H](CS)C(=O)N[C@H](C(=O)N[C@@H](CC(C)C)C(=O)N[C@@H](CC(C)C)C(=O)O)[C@@H](C)CC)[C@@H](C)CC)[C@@H](C)O)[C@@H](C)O)[C@@H](C)O)C(C)C)[C@@H](C)O)[C@@H](C)O)[C@@H](C)O", "note": "[E23A]", "values": [{"measurement": "solubility", "setting": "[1]", "result": "relative insolubility"}, {"measurement": "adverse effects / overt toxicity upon necropsy", "setting": "complement activation", "result": "no overt adverse effects"}]}, {"smiles": "CC[C@H](C)[C@H](N)C(=O)N[C@@H](C)C(=O)N[C@@H](CC(C)C)C(=O)N[C@H](C(=O)N[C@@H](CC(C)C)C(=O)N[C@@H](CCC(=O)O)C(=O)N1CCC[C@H]1C(=O)N[C@H](C(=O)N[C@@H](CS)C(=O)N[C@@H](CS)C(=O)N[C@@H](CCC(N)=O)C(=O)N[C@@H](CCC(=O)O)C(=O)N[C@@H](CCCNC(=N)N)C(=O)N[C@@H](C)C(=O)N[C@@H](C)C(=O)O)[C@@H](C)CC)[C@@H](C)CC", "note": "[PA]", "values": [{"measurement": "solubility", "setting": "[1]", "result": "aqueous solubility of the compound was significantly improved"}]}]}
